Common to all, as to test: relative viability (nuclei count vs DMSO), 5 days (fraction); higher = more cells survive
Compound in test [1]: Cn1c(=O)n(-c2ccc(C(C)(C)C#N)cc2)c2c3cc(-c4cnc5ccccc5c4)ccc3ncc21 [Dactolisib] + Nc1nc2[nH]cc(CCc3ccc(C(=O)N[C@@H](CCC(=O)O)C(=O)O)cc3)c2c(=O)[nH]1 [Pemetrexed] (partner 0.2 µM)
A digest of the protocol:
(§1)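 Relative viability equals treated-well nuclei counts divided by vehicle-well nuclei counts. Counts came from 4× images of lung cancer cell lines grown in 1536-well plates for 5 days after pin-tool dosing on the day after seeding. Dosing used one drug alone or a fixed anchor-drug dose plus five library-drug doses (not always all listed) in √10 steps, and values are medians of duplicate plates.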

Compound in test [2]: C1CCC(CC1)N(CCNCCC2=C3C(=C(C=C2)O)NC(=O)CO3)C(=O)CCNCCC4=CC(=C(C=C4)Cl)Cl [AZ505] + CS(=O)(=O)N1CCN(Cc2cc3nc(-c4cccc5[nH]ncc45)nc(N4CCOCC4)c3s2)CC1 [Pictilisib] (partner 1 µM)
A digest of the protocol: as §1

Compound in test [3]: Cn1c(=O)n(-c2ccc(C(C)(C)C#N)cc2)c2c3cc(-c4cnc5ccccc5c4)ccc3ncc21 [Dactolisib] + COc1cc2c(Oc3ccc(NC(=O)C4(C(=O)Nc5ccc(F)cc5)CC4)cc3F)ccnc2cc1OCCCN1CCOCC1 [Foretinib] (partner 0.25 µM)
In short, it runs like this:
as §1

Compound in test [4]: C1CCC(CC1)N(CCNCCC2=C3C(=C(C=C2)O)NC(=O)CO3)C(=O)CCNCCC4=CC(=C(C=C4)Cl)Cl [AZ505] + N=C(N)NC(=N)NCCc1ccccc1 [Phenformin] (partner 250 µM)
In short, it runs like this:
as §1

Our source for the relative viability values is the supplement of paper PMC10307832.

For the cell line UMC-11, the relative viability in test [1] (first compound 0.002 µM) turned out to be 0.855; in test [1] (first compound 0.006325 µM) it was 0.742; in test [1] (first compound 0.02 µM), 0.552; in test [1] (first compound 0.06325 µM), 0.453; in test [1] (first compound 0.2 µM), 0.26; in test [2] (first compound 0.08 µM) it was 0.753. In addition, the relative viability in test [2] (first compound 0.253 µM) came out at 0.766; in test [2] (first compound 0.8 µM), 0.688; in test [2] (first compound 2.53 µM), 0.972; in test [2] (first compound 8 µM) it was 0.974; in test [3] (first compound 0.002 µM), 1.04; in test [3] (first compound 0.006325 µM), 0.882. In addition, the relative viability in test [3] (first compound 0.02 µM) turned out to be 0.671; in test [3] (first compound 0.06325 µM) it was 0.273; in test [3] (first compound 0.2 µM), 0.242; in test [4] (first compound 0.08 µM), 0.305; in test [4] (first compound 0.253 µM), 0.323; in test [4] (first compound 0.8 µM), 0.328. The values for the relative viability in test [4] (first compound 2.53 µM) and in test [4] (first compound 8 µM) were 0.328 and 0.325, respectively.
